Measurements from ChEMBL document CHEMBL1143194, “The 1,4-benzodiazepine-2,5-dione small molecule template results in melanocortin receptor agonists with nanomolar potencies” (J Med Chem, 2008).

Key:
Melanocortin receptor 4 = Melanocortin receptor 4 (Mus musculus, UniProt P56450); assay: Agonist activity at mouse MC4R expressed in HEK293 cells assessed as forskolin-stimulated response by beta-galactosidase reporter gene assay; type: functional, cell-based
Melanocortin receptor 5 = Melanocortin receptor 5 (Mus musculus, UniProt P41149); assay: Agonist activity at mouse MC5R expressed in HEK293 cells assessed as forskolin-stimulated response by beta-galactosidase reporter gene assay; type: functional, cell-based
[1] = target: Melanocyte-stimulating hormone receptor (Mus musculus, UniProt Q01727); assay: Agonist activity at mouse MC1R expressed in HEK293 cells assessed as forskolin-stimulated response by beta-galactosidase reporter gene assay; type: functional, cell-based
Melanocortin receptor 3 = Melanocortin receptor 3 (Mus musculus, UniProt P33033); assay: Agonist activity at mouse MC3R expressed in HEK293 cells assessed as forskolin-stimulated response by beta-galactosidase reporter gene assay; type: functional, cell-based
[2] = target: Melanocortin receptor 5 (Mus musculus) (UniProt P41149); assay: Agonist activity at mouse MC5R expressed in HEK293 cells assessed as forskolin-stimulated response at 10 uM by beta-galactosidase reporter gene assay relative to forskolin; type: functional, cell-based
[3] = target: Melanocortin receptor 4 (Mus musculus) (UniProt P56450); assay: Agonist activity at mouse MC4R expressed in HEK293 cells assessed as forskolin-stimulated response at 100 uM by beta-galactosidase reporter gene assay relative to forskolin; type: functional, cell-based
[4] = target: Melanocortin receptor 3 (Mus musculus) (UniProt P33033); assay: Agonist activity at mouse MC3R expressed in HEK293 cells assessed as forskolin-stimulated response at 100 uM by beta-galactosidase reporter gene assay relative to forskolin; type: functional, cell-based
[5] = target: Melanocyte-stimulating hormone receptor (Mus musculus) (UniProt Q01727); assay: Agonist activity at mouse MC1R expressed in HEK293 cells assessed as forskolin-stimulated response at 100 uM by beta-galactosidase reporter gene assay relative to forskolin; type: functional, cell-based
[6] = target: Melanocortin receptor 5 (Mus musculus) (UniProt P41149); assay: Agonist activity at mouse MC5R expressed in HEK293 cells assessed as forskolin-stimulated response at 100 uM by beta-galactosidase reporter gene assay relative to forskolin; type: functional, cell-based
Mus musculus [7] = species on record: Mus musculus; assay: Selectivity for mouse MC1R over mouse MC3R
Mus musculus [8] = species on record: Mus musculus; assay: Selectivity for mouse MC1R over mouse MC4R

Melanocyte-stimulating hormone receptor, sequence (Q01727 whole entry): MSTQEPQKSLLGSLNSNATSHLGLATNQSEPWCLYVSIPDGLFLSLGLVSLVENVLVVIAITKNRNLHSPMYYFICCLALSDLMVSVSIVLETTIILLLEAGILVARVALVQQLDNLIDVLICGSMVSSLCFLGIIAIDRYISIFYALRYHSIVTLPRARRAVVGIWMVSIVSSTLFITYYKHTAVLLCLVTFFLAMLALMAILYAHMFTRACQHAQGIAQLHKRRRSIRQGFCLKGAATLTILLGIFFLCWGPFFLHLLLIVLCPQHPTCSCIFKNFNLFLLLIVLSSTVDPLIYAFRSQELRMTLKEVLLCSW
Melanocortin receptor 5, sequence (P41149 whole entry): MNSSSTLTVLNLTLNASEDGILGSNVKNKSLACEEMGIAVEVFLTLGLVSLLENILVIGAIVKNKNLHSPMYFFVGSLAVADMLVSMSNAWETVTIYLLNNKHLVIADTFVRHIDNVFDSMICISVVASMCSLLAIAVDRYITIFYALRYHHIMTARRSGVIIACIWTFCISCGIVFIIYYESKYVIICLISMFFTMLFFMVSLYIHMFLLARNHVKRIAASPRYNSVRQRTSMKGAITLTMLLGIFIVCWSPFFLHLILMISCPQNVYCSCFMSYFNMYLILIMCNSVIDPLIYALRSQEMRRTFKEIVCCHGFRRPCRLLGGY
Melanocortin receptor 3, sequence (P33033 whole entry): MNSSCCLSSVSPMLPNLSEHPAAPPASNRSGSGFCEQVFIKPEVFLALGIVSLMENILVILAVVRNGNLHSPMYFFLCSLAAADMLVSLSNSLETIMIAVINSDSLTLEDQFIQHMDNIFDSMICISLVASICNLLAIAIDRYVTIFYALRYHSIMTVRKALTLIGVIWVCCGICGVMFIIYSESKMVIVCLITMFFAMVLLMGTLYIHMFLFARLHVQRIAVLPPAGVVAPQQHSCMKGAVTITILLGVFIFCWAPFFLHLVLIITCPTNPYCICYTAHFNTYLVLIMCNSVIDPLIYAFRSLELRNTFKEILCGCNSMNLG
Melanocortin receptor 4, sequence (P56450 whole entry): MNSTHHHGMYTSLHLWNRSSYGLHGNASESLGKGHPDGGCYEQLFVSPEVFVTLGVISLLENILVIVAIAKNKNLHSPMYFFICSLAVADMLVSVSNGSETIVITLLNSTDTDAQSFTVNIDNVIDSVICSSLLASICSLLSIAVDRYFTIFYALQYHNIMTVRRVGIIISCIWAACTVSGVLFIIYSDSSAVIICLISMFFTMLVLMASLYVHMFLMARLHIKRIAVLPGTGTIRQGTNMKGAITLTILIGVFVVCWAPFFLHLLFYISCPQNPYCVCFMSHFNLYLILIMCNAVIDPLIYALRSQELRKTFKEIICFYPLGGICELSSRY
Melanocortin receptor 4 (Mus musculus), sequence (P56450 whole entry): as above
Melanocyte-stimulating hormone receptor (Mus musculus), sequence (Q01727 whole entry, looked up): as the sequence (Q01727 whole entry) above
Melanocortin receptor 5 (Mus musculus), sequence (P41149 whole entry): as the sequence (P41149 whole entry) above
Melanocortin receptor 3 (Mus musculus), sequence (P33033 whole entry): as the sequence (P33033 whole entry) above

SMILES | EC50 (Melanocortin receptor 4) | EC50 (Melanocortin receptor 5) | EC50 [1] | EC50 (Melanocortin receptor 3) | other results
NCCCCC1NC(=O)c2ccc(Cl)cc2N(Cc2ccccc2)C1=O (stereo not given) | 0.24 µM | 0.087 µM | 0.048 µM | 0.32 µM | 
O=C1NC(Cc2ccccc2)C(=O)N(Cc2ccccc2)c2ccccc21 (stereo not given) | > 100 µM | > 100 µM | 32.9 µM | > 100 µM | 
O=C1NC(Cc2c[nH]c3ccccc23)C(=O)N(Cc2ccc3ccccc3c2)c2cc(Cl)ccc21 (stereo not given) | > 100 µM | > 100 µM | > 100 µM | > 100 µM | 
NCCCCC1NC(=O)c2ccc(Cl)cc2N(Cc2ccc3ccccc3c2)C1=O (stereo not given) |  |  | 3.4 µM |  | Activity [2]: 65%; Activity [3]: 30%; Activity [4]: 30%
O=C1NC(Cc2ccccc2)C(=O)N(Cc2ccc3ccccc3c2)c2cc(Cl)ccc21 (stereo not given) |  | 4.35 µM | 4.7 µM | 23.3 µM | Activity [3]: 70%
CCCN1C(=O)C(Cc2ccccc2)NC(=O)c2ccccc21 (stereo not given) | 35 µM | 3.27 µM | 6.9 µM |  | Activity [4]: 80%
NC(N)=NCCCC1NC(=O)c2ccc(Cl)cc2N(Cc2ccccc2)C1=O (stereo not given) |  | 17 µM | 1.8 µM | 30.6 µM | 
O=C1NC(Cc2c[nH]c3ccccc23)C(=O)N(Cc2ccccc2)c2ccccc21 (stereo not given) | > 100 µM | > 100 µM |  | > 100 µM | Activity [5]: 70%
O=C1NC(Cc2ccccc2)C(=O)N(Cc2ccccc2-c2ccccc2)c2ccccc21 (stereo not given) | 1.97 µM |  | 0.23 µM | 4.16 µM | Activity [6]: 60%; Ratio EC50 (Mus musculus [7]): 18; Ratio EC50 (Mus musculus [8]): 9
NC(N)=NCCCC1NC(=O)c2ccccc2N(Cc2ccccc2)C1=O (stereo not given) | > 100 µM | > 100 µM | 16.4 µM | > 100 µM | 
Cc1cccc2c1N(Cc1ccccc1)C(=O)C(Cc1cn(Cc3ccccc3)c3ccccc13)NC2=O (stereo not given) | > 100 µM | > 100 µM | 21.6 µM | > 100 µM | 
CCCCN1C(=O)C(Cc2ccccc2)NC(=O)c2ccccc21 (stereo not given) | > 100 µM | > 100 µM |  | > 100 µM | Activity [5]: 70%
N=C(N)NCCCC1NC(=O)c2ccc(Cl)cc2N(Cc2ccccc2)C1=O (stereo not given) |  |  |  |  | Activity [3]: 60%
